Results as given in paper PMC9050848, “Carbamoyl-N-aryl-imine-urea: a new framework to obtain a putative leishmanicidal drug-candidate” (RSC Advances, 2020).

Legend:
[1] = Chemical stability in PBS pH 7.4; format: physicochemical; settings: PBS pH 7.4, 37 °C, 0 and 240 minutes
Experimental: To investigate the potential plasma instability of the carbamoyl-N-arylimine-urea subunit, designed as a new peptide mimetic framework, compound 10e (LASSBio-1736) was selected to investigate its plasma stability,[21,22] previously to the evaluation of its in vivo leishmanicidal effect. Quantitation of 10e (LASSBio-1736), benzocaine standard (positive control; it means a substrate drug for plasma hydrolysis) and ketoconazole (internal standard) was determined by UPLC-MS/MS, after incubation of the compounds at 0, 30, 60, 120 and 240 min with rat plasma, and measuring the peak areas in three different experiments. […]
final R1 factor for I >2σ(I ) 0.0594 final wR 2 factor for all data 0.1689 largest diff. peak / hole (e/Å 3) 0.220 and -0.256
Chemical stability pH 7.4
In a 10 mL tube, 5μL (250 ng/mL) of LASSBio-1736 (10e) (stock concentration = 10000 ng/mL solubilized in DMSO) was added in 195μ L of PBS (pH=7.4), and the mixture was placed in a shaker at 37 °C under vigorous stirring for 0 and 240 minutes. […]
The samples were resuspended with 100 μL of a methanol:water mixture (7:3) […] and were placed in 2 mL vials, and analyzed by UPLC-MS. […]

[2] = test system: L. amazonensis intracellular amastigotes; test: Leishmanicidal activity against intracellular amastigote forms of L. amazonensis in J774.A1 macrophages; format: cell-based
Experimental: Considering that L. amazonensis is one of the causative species of cutaneous leishmaniasis in Brazil,[20] we have investigated the leishmanicidal effect of compounds 9a–e and 10a–e against L. amazonensis amastigotes forms. Initially, all compounds were evaluated at 30 μM. […] Then, they were selected to determine their IC50 value for intracellular amastigote forms of L. amazonensis.
Promastigotes of L. amazonensis (MHOM/BR/77/LTB0016) were obtained from Dr Eduardo Caio Torres dos Santos at Oswaldo Cruz Institute – Fiocruz. Promastigotes of L. braziliensis (MHOM/BR/01/BA788) were obtained from Dr Valéria de Matos Borges at Gonçalo Moniz Research Center – Fiocruz. The parasites were maintained in vitro in Schneider's medium, supplemented with 10% FBS and 2% human urine at 27 °C in BOD incubator.
Initially, compounds 9a–e and 10a–e were evaluated at screening concentration of 30 μM against L. amazonensis, using DMSO 0.03% as vehicle control, since this was the DMSO concentration (vehicle) remaining in each well with the tested compounds. […] Vehicle control used was DMSO 0.1%, since this was the concentration of DMSO (vehicle) existing in each well with the tested substances in the highest concentration used.
To assess the activity of the test derivatives against the amastigote stage of L. amazonensis and L. braziliensis the model of infection in coverglass was realized.[31] The murine macrophages (J774.A1 cell line) were prepared in 24-well cell culture plate (flat bottom, clear, Corning) at 2 × 10^5 adherent cells per well, infected with 2 × 10^6 promastigotes in glass coverslips placed inside 1 mL medium culture. The cultures were cultured or not with the test derivatives or reference drugs, and kept for 24 h at 37 °C, 5% CO2. After 24 h of incubation, the coverslips were washed, stained with Giemsa–May–Grünwald, and intracellular amastigotes were counted in 100 macrophages, using an optical microscope, on the objective of 100×. Thus, during the counting of 100 macrophages, the amount of amastigotes present within these defence cells was also determined. Data obtained from in vitro experiments were expressed as the mean ± S.E.M. of duplicate cultures of representative assays. Statistical differences between the treated and the control groups were evaluated by ANOVA and Dunnett hoc tests. Differences with a p value < 0.05 or lower were considered significant.

[3] = test system: J774.A1 cell lines (macrophages); test: Cytotoxicity against J774.A1 macrophages, MTT assay; format: cell-based, murine (BALB/c); settings: Mus musculus, J774.A1, 48 h, read-out: IC50 (concentration required to give 50% death of cells)
Experimental: Initially the cytotoxic profile of compounds 9a–e and 10a–e against J774.A1 cell lines (i.e., BALB/c macrophage cell lines) was investigated. Therefore, these cells were exposed to different concentrations (0.1–100 μM) of compounds 9a–e and 10a–e and the cytotoxic effect was measured after 48 h of drug incubation, by using MTT-based assay. The cytotoxicity was expressed as IC50 values (that means the concentration of a drug that kills half of the tested cells in culture). As depicted in Table 1, most compounds have shown low cytotoxic activity with IC50 > 100 μM.
These adherent-phenotype macrophage lines were cultured in Dulbecco's Modified Eagle's medium (DMEM, Sigma) supplemented with 10% FBS at 37 °C with 95% humidity and 5% CO2.
To evaluate the cytotoxic activity against the J774.A1 cell line, the host cells were plated in 96-well cell culture plate (flat bottom, clear, Corning) at 2 × 10^5 cells per well in complete culture medium 10% FBS at 37 °C. After 1 h wells were washed with warm Hank's Balanced Salt solution (HBSS) to remove non-adherent cells, leaving approximately 10^5 adherent macrophages. All cultures were done in DMEM complete supplemented with 10% FBS. The compounds and pentamidine were added at serial concentrations (0.1–100 μM). The cells were also cultured with medium free from compounds or vehicle (basal growth control) or in media with DMSO 0.1% (vehicle control). Positive control (dead cells) was obtained by cellular lysis with 1% of Triton 100× in DMEM complete (because it is a detergent in this concentration, Triton 100× destabilizes the cell membrane of macrophages, causing cell death). The cytotoxicity was evaluated by the MTT assay.[31] This assay consists of indirectly measuring cell viability through the mitochondrial enzymatic activity of macrophages. Viable cells are capable of reducing MTT to formazan. For this, after the incubation of plate for 48 h, 100 μL of MTT solution (0.5 mg mL^−1, in DMEM medium) was added per well, and the plate was incubated for 1 h. Then, the supernatant of each well was retired and was added 150 μL of DMSO. The absorbance was determined at 570 nm in a microplate reader. The cell viability of the cultures treated with the compounds was compared to the death pattern obtained in the control cultures. In the positive control, the cell death was confirmed when the optical density was equal to zero, confirming that the cells were not viable. Data obtained from experiments were expressed as the mean ± standard error of the mean (mean ± S.E.M.) and statistical differences between the treated and the vehicle groups of experiments were evaluated by ANOVA and Dunnett hoc tests.

[4] = L. amazonensis amastigotes, ratio of IC50 values

With `O=C(N/N=C/c1ccc(C(F)(F)F)cc1)NNC(=O)c1ccc(Cl)cc1Cl` [LASSBio-1736 (10e), 2,4-dichloro-phenylcarbamoyl-N-4-trifluoromethylphenylimine-urea] the “Stability to hydrolysis at PBS (pH 7.4)” value [1] was “stable to hydrolysis”, the “Times less potent than miltefosine” value [2, 4] was about 4.0 times and the “Times less potent than pentamidine” value [2, 4] was “about 2.5 times”. For the same compound, the “Effect on the number of intracellular amastigotes” value ([2]; L. amazonensis, screening concentration 30 μM) was “decreased the number of intracellular amastigotes”, the IC50 ([2]; Leishmania amazonensis, J774.A1, 24 h, read-out: IC50 (concentration required to give 50% death of parasites)) was 84 ± 0.3 µM and the Emax ([2]; Leishmania amazonensis, J774.A1, L. amazonensis intracellular amastigotes, maximum toxicity vs 0.1% DMSO group, read-out: Maximum effect (% ± S.E.M.)) was 57.6 ± 0.2%. The IC50 [3] was over 100 µM.
